Results from PMC3075257, “Evaluation of Multidrug Efflux Pump Inhibitors by a New Method Using Microfluidic Channels” (PLoS ONE, 2011).

Legend:
Format in all cases: cell-based
MexAB-OprM = molecular target: T1, MexAB-OprM (Pseudomonas aeruginosa, UniProt P52002); test: fluorescein efflux from E. coli cells loaded with FDG, microfluidic channel fluorescence microscopy; settings: ΔBC/pABM against vector control ΔBC/pV, 100 µg/ml FDG, LB, 15 min, 37°C; exported dye formed in the cell from FDG
T1 construct: gene mexB; full-length tripartite RND efflux pump from plasmid pMMB67HE::mexAB-oprM in E. coli MG1655 ΔacrBΔtolC, IPTG-induced; with Multidrug resistance protein MexA; Outer membrane protein OprM

MexXY-OprM = molecular target: T2, MexXY-OprM (Pseudomonas aeruginosa, UniProt G3XCW2); test: as above; settings: ΔBC/pXYM against vector control ΔBC/pV, 100 µg/ml FDG, LB, 15 min, 37°C; exported dye formed in the cell from FDG
T2 construct: gene mexY; full-length tripartite RND efflux pump from plasmid pMMB67HE::mexXY-oprM in E. coli MG1655 ΔacrBΔtolC, IPTG-induced; with Multidrug efflux RND transporter periplasmic adaptor subunit MexX; Outer membrane protein OprM
T2 sequence (G3XCW2 entry or part of it): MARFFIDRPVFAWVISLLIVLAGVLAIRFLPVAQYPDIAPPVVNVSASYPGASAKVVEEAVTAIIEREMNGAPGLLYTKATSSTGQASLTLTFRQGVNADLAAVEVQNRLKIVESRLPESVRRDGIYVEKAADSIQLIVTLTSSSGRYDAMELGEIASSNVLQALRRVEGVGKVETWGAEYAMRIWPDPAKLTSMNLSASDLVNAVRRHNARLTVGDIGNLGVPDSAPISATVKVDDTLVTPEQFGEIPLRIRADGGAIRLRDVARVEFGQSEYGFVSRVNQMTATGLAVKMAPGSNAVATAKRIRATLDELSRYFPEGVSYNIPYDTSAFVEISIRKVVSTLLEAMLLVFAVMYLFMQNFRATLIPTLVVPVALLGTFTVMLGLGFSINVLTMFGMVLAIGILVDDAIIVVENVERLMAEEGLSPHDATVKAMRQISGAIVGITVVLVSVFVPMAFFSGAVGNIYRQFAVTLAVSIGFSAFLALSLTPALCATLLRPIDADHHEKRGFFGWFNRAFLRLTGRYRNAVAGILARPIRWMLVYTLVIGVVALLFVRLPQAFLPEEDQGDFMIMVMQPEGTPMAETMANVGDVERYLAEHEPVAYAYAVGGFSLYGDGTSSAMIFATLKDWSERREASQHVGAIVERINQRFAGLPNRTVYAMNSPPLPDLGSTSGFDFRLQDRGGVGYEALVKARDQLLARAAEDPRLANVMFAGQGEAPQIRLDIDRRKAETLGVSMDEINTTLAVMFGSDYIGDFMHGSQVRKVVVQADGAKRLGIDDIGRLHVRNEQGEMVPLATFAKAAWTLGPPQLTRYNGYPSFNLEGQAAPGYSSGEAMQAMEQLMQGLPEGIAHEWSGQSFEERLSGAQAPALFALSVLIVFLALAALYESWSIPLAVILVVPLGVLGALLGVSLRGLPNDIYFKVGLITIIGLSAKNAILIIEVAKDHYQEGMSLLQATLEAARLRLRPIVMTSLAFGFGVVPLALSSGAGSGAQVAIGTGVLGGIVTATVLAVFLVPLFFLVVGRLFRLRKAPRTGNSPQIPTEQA
T2 sequence (G3XD21 entry or part of it, further chain): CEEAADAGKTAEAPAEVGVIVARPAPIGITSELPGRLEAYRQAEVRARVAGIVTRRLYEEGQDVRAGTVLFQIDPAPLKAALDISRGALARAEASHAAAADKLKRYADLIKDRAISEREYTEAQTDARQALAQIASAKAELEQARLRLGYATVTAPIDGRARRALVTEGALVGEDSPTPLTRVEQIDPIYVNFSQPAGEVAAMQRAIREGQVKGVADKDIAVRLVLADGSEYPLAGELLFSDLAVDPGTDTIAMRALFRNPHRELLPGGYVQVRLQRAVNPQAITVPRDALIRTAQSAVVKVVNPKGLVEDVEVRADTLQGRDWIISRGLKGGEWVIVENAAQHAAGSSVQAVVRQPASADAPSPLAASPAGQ
T2 sequence (Q51487 18-485, further chain): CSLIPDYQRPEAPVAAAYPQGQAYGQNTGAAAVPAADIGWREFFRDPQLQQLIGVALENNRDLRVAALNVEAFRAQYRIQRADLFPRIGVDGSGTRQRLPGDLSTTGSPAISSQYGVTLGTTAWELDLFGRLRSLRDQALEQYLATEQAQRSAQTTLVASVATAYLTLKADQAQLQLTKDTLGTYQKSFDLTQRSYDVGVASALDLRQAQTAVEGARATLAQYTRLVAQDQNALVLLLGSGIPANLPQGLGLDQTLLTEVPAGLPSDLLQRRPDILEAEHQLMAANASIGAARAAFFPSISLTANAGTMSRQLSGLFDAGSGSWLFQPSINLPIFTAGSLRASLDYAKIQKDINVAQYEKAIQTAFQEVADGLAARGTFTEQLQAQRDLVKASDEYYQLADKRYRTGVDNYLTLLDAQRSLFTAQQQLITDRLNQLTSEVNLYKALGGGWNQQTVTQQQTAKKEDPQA

AcrAB-TolC = molecular target: T3, AcrAB-TolC (Escherichia coli, UniProt P31224); test: FDG influx and hydrolysis in wild-type against ΔacrB cells, microfluidic channel fluorescence microscopy; settings: 100 µg/ml FDG, LB, lactose-induced β-galactosidase, 15 min, 37°C
T3 construct: gene acrB; native chromosomal pump in intact cells, judged against ΔacrB and ΔtolC deletion mutants; with Multidrug efflux pump subunit AcrA; Outer membrane protein TolC
T3 sequence (P0AE06 25-397): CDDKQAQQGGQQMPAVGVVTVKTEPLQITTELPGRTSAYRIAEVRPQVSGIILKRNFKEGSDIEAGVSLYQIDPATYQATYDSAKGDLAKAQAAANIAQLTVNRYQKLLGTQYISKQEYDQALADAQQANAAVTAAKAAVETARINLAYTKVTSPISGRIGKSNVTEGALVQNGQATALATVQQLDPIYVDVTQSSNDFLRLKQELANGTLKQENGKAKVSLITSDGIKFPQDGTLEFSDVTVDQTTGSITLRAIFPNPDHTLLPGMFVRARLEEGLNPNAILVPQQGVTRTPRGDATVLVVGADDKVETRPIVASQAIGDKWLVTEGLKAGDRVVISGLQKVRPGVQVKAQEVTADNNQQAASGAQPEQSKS
T3 sequence (P02930 23-493, further chain): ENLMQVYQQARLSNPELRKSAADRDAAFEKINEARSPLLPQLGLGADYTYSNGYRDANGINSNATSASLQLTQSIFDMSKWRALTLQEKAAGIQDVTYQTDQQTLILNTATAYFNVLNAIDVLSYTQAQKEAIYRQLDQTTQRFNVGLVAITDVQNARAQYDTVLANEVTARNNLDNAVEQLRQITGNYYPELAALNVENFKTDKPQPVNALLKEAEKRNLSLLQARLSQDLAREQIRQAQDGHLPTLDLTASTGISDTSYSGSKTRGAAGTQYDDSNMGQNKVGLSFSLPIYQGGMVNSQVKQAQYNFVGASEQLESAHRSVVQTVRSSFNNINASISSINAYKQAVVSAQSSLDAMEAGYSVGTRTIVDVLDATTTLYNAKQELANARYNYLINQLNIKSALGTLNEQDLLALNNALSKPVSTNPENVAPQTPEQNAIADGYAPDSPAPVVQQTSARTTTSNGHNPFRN
T3 sequence (P31224 whole entry): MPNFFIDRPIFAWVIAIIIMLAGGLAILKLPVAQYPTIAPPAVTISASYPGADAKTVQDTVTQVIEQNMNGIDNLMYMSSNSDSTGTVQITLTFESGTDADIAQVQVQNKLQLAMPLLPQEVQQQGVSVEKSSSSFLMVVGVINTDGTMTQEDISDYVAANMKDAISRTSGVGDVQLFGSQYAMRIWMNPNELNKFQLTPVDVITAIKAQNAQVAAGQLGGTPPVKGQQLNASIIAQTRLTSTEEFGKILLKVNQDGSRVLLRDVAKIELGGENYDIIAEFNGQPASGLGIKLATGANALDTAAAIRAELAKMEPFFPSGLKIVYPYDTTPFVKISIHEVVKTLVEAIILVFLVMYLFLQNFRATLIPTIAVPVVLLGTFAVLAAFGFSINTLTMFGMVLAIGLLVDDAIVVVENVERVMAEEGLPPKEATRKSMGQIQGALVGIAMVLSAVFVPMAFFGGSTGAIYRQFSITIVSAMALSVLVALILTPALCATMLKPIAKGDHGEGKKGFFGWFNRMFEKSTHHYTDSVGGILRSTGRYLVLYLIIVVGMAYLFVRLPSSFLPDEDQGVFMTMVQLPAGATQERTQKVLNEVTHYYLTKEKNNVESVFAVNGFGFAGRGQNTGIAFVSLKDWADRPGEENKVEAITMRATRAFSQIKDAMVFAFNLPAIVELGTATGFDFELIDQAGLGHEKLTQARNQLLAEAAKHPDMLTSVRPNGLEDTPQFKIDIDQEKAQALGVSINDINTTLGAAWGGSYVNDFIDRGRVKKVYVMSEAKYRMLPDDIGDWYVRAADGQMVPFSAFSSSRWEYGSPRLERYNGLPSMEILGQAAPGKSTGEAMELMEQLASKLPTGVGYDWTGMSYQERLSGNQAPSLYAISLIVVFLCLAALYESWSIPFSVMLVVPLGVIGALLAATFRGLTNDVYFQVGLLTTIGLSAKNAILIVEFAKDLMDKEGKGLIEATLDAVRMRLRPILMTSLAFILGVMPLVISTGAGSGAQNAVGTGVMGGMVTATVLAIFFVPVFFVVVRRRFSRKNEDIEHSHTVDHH

| Compound | fluorescein efflux from E. coli cells loaded with FDG, microfluidic channel fluo (MexAB-OprM) | fluorescein efflux from E. coli cells loaded with FDG, microfluidic channel fluo (MexXY-OprM) | FDG influx and hydrolysis in wild-type against ΔacrB cells, microfluidic channel (AcrAB-TolC) |
| --- | --- | --- | --- |
| O=C1OC2(c3ccc(O)cc3Oc3cc(O)ccc32)c2ccccc21 [fluorescein] | The fluorescent medium was observed in ΔBC carrying pABM or pXYM | The fluorescent medium was observed in ΔBC carrying pABM or pXYM | – |
| O=C1OC2(c3ccc(O[C@@H]4O[C@H](CO)[C@H](O)[C@H](O)[C@H]4O)cc3Oc3cc(O[C@@H]4O[C@H](CO)[C@H](O)[C@H](O)[C@H]4O)ccc32)c2ccccc21 [Fluorescein-di-β-D-galactopyranoside] | – | – | AcrAB-TolC and the analogous RND pumps effectively prevented FDG influx in E. coli wild-type cells |
